Test results published in patent publication US20190374509A1, “Methods of Using Metamizole for Treatment of Pyrexia in Equines” (Kindred Biosciences, Inc., priority 2018, published 2019).

Experiments:
horses [1] = experiment: Margin of safety study, IV three times daily for 9 days: necropsy, organ weights, histopathology; assay type: in vivo; details: for Liver (absolute weight) LS Means / Liver (relative to body weight) LS Means: necropsy
Protocol: A study was conducted to evaluate the margin of safety of metamizole when administered intravenously to horses for 9 days at doses of 0 mg/kg (0×), 30 mg/kg (1×), 60 mg/kg (2×), and 90 mg/kg (3×) of body weight three times daily (TID), every 8 hours±30 min.
Treatment phase involved administration of the investigational drug or placebo. The investigational drug was a sterile injectable formulation of dipyrone (Zimeta™, Corden Pharma, Caponago, Italy) (500 mg/mL) in 100 mL glass bottles. The placebo was sterile injectable saline (Nova-Tech Inc, Grand Island, NE) (0.9% sodium chloride) in 500 mL plastic bottles labeled for veterinary use. Dipyrone treatment groups were 30 mg/kg (1×), 60 mg/kg (2×), and 90 mg/kg (3×). Placebo treatment group was saline administered at a volume to match the 3× dipyrone group (0×). The dose was calculated based on body weight and administered three times daily for nine consecutive days. Due to the large volume of injection at the higher dose groups, treatment was administered via indwelling intravenous (IV) catheters. Intravenous catheters were placed using standard techniques. Horses were sedated with xylazine (AnaSed® LA, VetOne, MWI, Boise, Id.) and the skin was desensitized with subcutaneous injection of lidocaine (VetOne, MWI, Boise, Id.). Intravenous catheters were replaced at the discretion of the study director and were maintained with heparinized saline flush prior to and following dose administration.
Randomization occurred on Study Day −1. […] .
For continuous endpoints with single post-treatment measures (organ weight and organ weight relative to body weight), analysis of variance (ANOVA) was used to evaluate a model including treatment, sex, and treatment by sex interaction as fixed effects. If treatment by sex interaction was significant, within sex pair-wise comparison of each treatment group versus placebo using linear contrasts were performed. If treatment by sex interaction was not significant and treatment effect was significant, pair-wise comparison of each treatment group versus placebo for pooled sex were performed. In particular, sex specific organ weights (ovaries) were analyzed by ANOVA including only treatment as a fixed effect.

horses [2] = experiment: Coagulation effects study, IV BID or TID for 9 days: clinical signs; assay type: in vivo
Protocol: The purpose of this study was to evaluate the effects of metamizole on coagulation parameters and pharmacokinetic parameters when administered intravenously to horses for 9 days at doses of 0 mg/kg (0×), 30 mg/kg (1×), 60 mg/kg (2×), and 90 mg/kg (3×) of body weight. Doses of 0×, 1×, 2×, and 3× were administered twice daily (BID), every 12 hours±120 min. Doses of 1× and 2× were administered three times daily (TID), every 8 hours±120 min. Metamizole plasma concentrations were assessed in the 1×BID, 3×BID, 1×TID, and 2×TID treatments groups to evaluate for evidence of accumulation.
The investigational drug was a sterile injectable formulation of dipyrone (Zimeta®, Corden Pharma, Caponago, Italy) (500 mg/mL) in 100 mL glass bottles. The placebo was sterile injectable saline (0.9% Saline, Nova-Tech Inc, Grand Island, NE) (0.9% sodium chloride) in 500 mL plastic bottles labeled for veterinary use. Dipyrone treatment groups were 30 mg/kg/dose (1×) administered twice daily (BID), 1× administered three times daily (TID), 60 mg/kg/dose (2×) BID, 2×TID, and 90 mg/kg/dose (3×) BID. Placebo treatment group, (0×) BID, were saline administered at a volume to match the 1× dipyrone group. The dose was calculated based on body weight and administered for nine consecutive days (Days 1-9). Due to the large volume of the injection at the higher test intervals, treatment was administered via indwelling intravenous catheters. Intravenous catheters were placed using standard techniques. Horses were sedated with xylazine (XylaMed™, VetOne, MWI, Boise, Id.) (0.6 mg/kg, IV) and the skin was desensitized with subcutaneous injection of lidocaine (Lidocaine 2%, VetOne, MWI, Boise, Id.). Intravenous catheters were replaced at the discretion of the study director and were maintained with heparinized saline flush prior to, and following, dose administration.
Horses were acclimated to the facility for 14 days prior to start of the treatment phase. […] On Day −1, thirty-two horses were randomized by the study statistician and moved to their assigned pens. On Day −1 (baseline), Day 4, and Day 10 horses had blood collected for a coagulation panel. A physical exam was performed prior to study start and on Day 10.

[3] = 1X BID, 30 mg/kg IV twice daily, n = 6
[4] = 1X TID, 30 mg/kg IV three times daily, n = 4
[5] = 2X BID, 60 mg/kg IV twice daily, n = 6
[6] = 2X TID, 60 mg/kg IV three times daily, n = 6
[7] = 3X BID, 90 mg/kg IV twice daily, n = 6

## Cc1c(N(C)CS(=O)(=O)O)c(=O)n(-c2ccccc2)n1C [dipyrone, [(2,3-dihydro-1,5-dimethyl-3-oxo-2-phenyl-1H-pyrazol-4-yl)methylamino] methanesulfonic acid]
Horses [1]; 1X, 30 mg/kg IV every 8 hours
  Liver (absolute weight) LS Means: 6280.00 g
  Liver (relative to body weight) LS Means: 13.69
Horses [1]; 2X, 60 mg/kg IV every 8 hours
  Liver (absolute weight) LS Means: 6892.50 g
  Liver (relative to body weight) LS Means: 15.28
Horses [1]; 3X, 90 mg/kg IV every 8 hours
  Liver (absolute weight) LS Means: 7765.21 g
  Liver (relative to body weight) LS Means: 16.38
Horses [1]; 30, 60, 90 mg/kg IV every 8 hours for 9 days vs placebo
  Effect on absolute and relative liver weights: statistically significant increase in absolute and relative liver weights
Horses [1]; up to 90 mg/kg IV every 8 hours for 9 days
  Renal, hepatic and gastrointestinal gross necropsy and histopathology evaluation: no significant findings
Horses [2]; [3]
  Depression, number of horses: 0
  Dermatitis, number of horses: 0
  Minor gastrointestinal signs or inappetence, number of horses: 2
  Minor respiratory signs (nasal discharge and or cough), number of horses: 1
  Ocular discharge, number of horses: 0
  Phlebitis and other catheter-related changes to jugular vein, number of horses: 2
  Suture site abscesses, number of horses: 1
Horses [2]; [4]
  Depression, number of horses: 0
  Dermatitis, number of horses: 0
  Minor gastrointestinal signs or inappetence, number of horses: 1
  Minor respiratory signs (nasal discharge and or cough), number of horses: 0
  Ocular discharge, number of horses: 0
  Phlebitis and other catheter-related changes to jugular vein, number of horses: 1
  Suture site abscesses, number of horses: 0
Horses [2]; [5]
  Depression, number of horses: 0
  Dermatitis, number of horses: 0
  Minor gastrointestinal signs or inappetence, number of horses: 2
  Minor respiratory signs (nasal discharge and or cough), number of horses: 0
  Ocular discharge, number of horses: 1
  Phlebitis and other catheter-related changes to jugular vein, number of horses: 3
  Suture site abscesses, number of horses: 0
Horses [2]; [6]
  Depression, number of horses: 1
  Dermatitis, number of horses: 0
  Minor gastrointestinal signs or inappetence, number of horses: 2
  Minor respiratory signs (nasal discharge and or cough), number of horses: 0
  Ocular discharge, number of horses: 0
  Phlebitis and other catheter-related changes to jugular vein, number of horses: 2
  Suture site abscesses, number of horses: 1
Horses [2]; [7]
  Depression, number of horses: 0
  Dermatitis, number of horses: 1
  Minor gastrointestinal signs or inappetence, number of horses: 1
  Minor respiratory signs (nasal discharge and or cough), number of horses: 1
  Ocular discharge, number of horses: 0
  Phlebitis and other catheter-related changes to jugular vein, number of horses: 3
  Suture site abscesses, number of horses: 0
Horses [2]; all treatment groups (30-90 mg/kg IV BID or TID, 9 days)
  Abnormal clinical signs in the treatment period: none were considered treatment related
